The text below walks through data of US20100210649A1, “PYRIDAZINONES AND FURAN-CONTAINING COMPOUNDS” (Sloan-Kettering Institute for Cancer Research, priority 2006, published 2010).

The term inhibition denotes the drop in the measured response relative to a control, in per cent.

Read-outs that look alike come from different tables or passages of the source.

Holding throughout (format): cell-based, human
The subject of one experiment is H1975. Kind of experiment: Non Small Cell Lung Cancer proliferation assay (Alamar Blue reduction), H1975. As to conditions: Homo sapiens, NCI-H1975, primary screening, 10 μM compound in 1% DMSO (v/v). The gist of the method:
(§1)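 Proliferation after 48 h compound exposure (1% DMSO final, 37 °C) was read by Alamar Blue reduction over an additional 48 h, fluorescence at 530 nm excitation/590 nm emission. Dose-response runs seeded 250 cells/well; DMSO-only wells as high control.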

The test system of another experiment is H2030. Description: Non Small Cell Lung Cancer proliferation assay (Alamar Blue reduction), H2030. Particulars: Homo sapiens, NCI-H2030, primary screening, 10 μM compound in 1% DMSO (v/v). In short, it runs like this: as §1
A general note: Resazurin is reduced to fluorescent resorufin, in cell work by metabolically active cells.

In another experiment the test system is H1650. Description: Non Small Cell Lung Cancer proliferation assay (Alamar Blue reduction), H1650. As to conditions: Homo sapiens, NCI-H1650, primary screening, 10 μM compound in 1% DMSO (v/v). In short, it runs like this: as §1
In another experiment the test system is H3255. Kind of experiment: Non Small Cell Lung Cancer proliferation assay (Alamar Blue reduction), H3255. As to conditions: Homo sapiens, NCI-H3255, primary screening, 10 μM compound in 1% DMSO (v/v). In short, it runs like this:
as §1

The mark [1] stands for this setting: read-out: percentage inhibition H1975.
Where [2] appears, read: read-out: percentage inhibition H2030.
[3] abbreviates: read-out: percentage inhibition H1650.
[4] abbreviates: read-out: percentage inhibition H3255.
[5] abbreviates: H1975, read-out: PRIMARY HTS [%] H1975 (percentage inhibition).
Setting [6] is: H2030, read-out: PRIMARY HTS [%] H2030 (percentage inhibition).
Setting [7] is: H1650, read-out: PRIMARY HTS [%] H1650 (percentage inhibition).
The mark [8] stands for this setting: H3255, read-out: PRIMARY HTS [%] H3255 (percentage inhibition).

`COc1cnn(-c2cccc(Cl)c2)c(=O)c1Cl` [compound 104390]: the inhibition at 10 µM in the experiment on H1975 (setting [1]) was 4%; in the experiment on H2030 (setting [2]), -6%; in the experiment on H1650 (setting [3]), 15%; with H3255 (setting [4]), 34%.

For the compound `O=C(Nc1ccc(NC(=O)c2ccc(Cl)cc2Cl)cc1)c1ccco1` [compound 72456], the inhibition at 10 µM came to 9% with H1975 (setting [5]), 8% in the experiment on H2030 (setting [6]), 12% with H1650 (setting [7]) and 7% with H3255 (setting [8]).

`Cc1c(Oc2ccccc2)nnn1-c1cnn(-c2ccccc2)c(=O)c1Br` [compound 223337]: the inhibition at 10 µM was 5% in the experiment with H1975 (setting [1]), -14% with H2030 (setting [2]), 13% in the experiment on H1650 (setting [3]) and 61% in the experiment with H3255 (setting [4]).

Take `COc1cnn(-c2ccccc2)c(=O)c1SCc1ccc(Cl)c(Cl)c1` [compound 182729]: the inhibition at 10 µM in the experiment with H1975 (setting [1]) is 23%; in the experiment with H2030 (setting [2]), -14%; in the experiment on H1650 (setting [3]) it was 10%; in the experiment with H3255 (setting [4]), 1%.

Consider `CCOC(=O)NCCOc1cnn(-c2ccccc2)c(=O)c1Cl` [compound 201622], for which the inhibition at 10 µM is -23% with H1975 (setting [1]), 4% in the experiment with H2030 (setting [2]), 5% with H1650 (setting [3]) and 33% in the experiment on H3255 (setting [4]).

On to `Cc1ccc(C(=O)Nc2ccc(NC(=O)c3ccco3)cc2)c(C)c1` [compound 97216], for which the inhibition at 10 µM with H1975 (setting [5]) was -4%; in the experiment on H2030 (setting [6]), -4%; in the experiment on H1650 (setting [7]), -1%; with H3255 (setting [8]), 3%.

Regarding `Cc1ccc(C(=O)Nc2ccc3ccccc3c2)o1` [compound 105503], the inhibition at 10 µM in the experiment with H1975 (setting [5]) was -13%; in the experiment with H2030 (setting [6]), -7%; in the experiment on H1650 (setting [7]), -10%; in the experiment with H3255 (setting [8]), 0%.

As for `CSc1cnn(-c2ccccc2)c(=O)c1SC` [compound 104423], the inhibition at 10 µM in the experiment on H1975 (setting [1]) is -20%; with H2030 (setting [2]), -3%; with H1650 (setting [3]) it was -11%; in the experiment on H3255 (setting [4]), 1%.

As to `O=c1c(SCc2ccccc2)c(SCc2ccccc2)cnn1-c1ccccc1` [compound 208693], the inhibition at 10 µM was -7% in the experiment on H1975 (setting [1]), -11% in the experiment on H2030 (setting [2]), -6% in the experiment with H1650 (setting [3]) and 0% in the experiment with H3255 (setting [4]).

For the compound `O=C(Nc1ccc(Cl)cc1)c1cc2c(ccc3ccccc32)o1` [compound 77021], the inhibition at 10 µM was -11% with H1975 (setting [5]), -1% with H2030 (setting [6]), 16% with H1650 (setting [7]) and 4% in the experiment with H3255 (setting [8]).

As for `COc1nn(-c2ccccc2)c(=O)c(Cl)c1Cl` [compound 104332], the inhibition at 10 µM in the experiment on H1975 (setting [1]) was determined as 99%; with H2030 (setting [2]), 87%; in the experiment with H1650 (setting [3]) it was 51%; with H3255 (setting [4]), 82%.

In the case of `CCc1c(C(=O)OC)nn(-c2ccc(C)cc2)c(=O)c1C#N` [compound 193326], the inhibition at 10 µM with H1975 (setting [1]) is -1%; in the experiment with H2030 (setting [2]) it was -9%; in the experiment with H1650 (setting [3]), -2%; in the experiment on H3255 (setting [4]) it was -49%.

Turning to `Cc1cc([N+](=O)[O-])ccc1NC(=O)c1ccco1` [compound 79434], the inhibition at 10 µM in the experiment with H1975 (setting [5]) was -7%; in the experiment on H2030 (setting [6]) it was 0%; with H1650 (setting [7]) it was 4%; in the experiment with H3255 (setting [8]), 4%.

Take `O=c1c(Sc2ccc(Cl)cc2)cc(Cl)nn1-c1ccccc1` [compound 177261]: the inhibition at 10 µM was 16% with H1975 (setting [1]), -8% in the experiment with H2030 (setting [2]), 14% in the experiment with H1650 (setting [3]) and 8% with H3255 (setting [4]).

For the compound `O=C(c1ccc([N+](=O)[O-])o1)N1CCc2ccccc21` [compound 100403], the inhibition at 10 µM in the experiment with H1975 (setting [5]) was -13%; in the experiment on H2030 (setting [6]), 3%; with H1650 (setting [7]), -13%; with H3255 (setting [8]) it was 2%.

With `O=C(Nc1cc(C(F)(F)F)ccc1Cl)c1ccc([N+](=O)[O-])o1` [compound 104039], the inhibition at 10 µM with H1975 (setting [5]) amounted to 69%; in the experiment with H2030 (setting [6]), 13%; in the experiment with H1650 (setting [7]) it was 61%; in the experiment with H3255 (setting [8]), 6%.

Take `COC(=O)NCCOc1cnn(-c2ccccc2)c(=O)c1` [compound 189493]: the inhibition at 10 µM was 12% with H1975 (setting [1]), -8% with H2030 (setting [2]), 2% in the experiment with H1650 (setting [3]) and -25% in the experiment on H3255 (setting [4]).

As for `CCCCSc1cnn(-c2ccccc2)c(=O)c1SCCCC` [compound 224766], the inhibition at 10 µM with H1975 (setting [1]) was -29%; in the experiment on H2030 (setting [2]) it was 95%; in the experiment with H1650 (setting [3]) it was -12%; with H3255 (setting [4]) it was 24%.

`O=c1c2c(cnn1-c1ccccc1)SCCS2` [compound 195988]: the inhibition at 10 µM with H1975 (setting [1]) is -7%; with H2030 (setting [2]), 7%; in the experiment with H1650 (setting [3]) it was 13%; with H3255 (setting [4]) it was -18%.

Regarding `O=c1c(Cl)c(Cl)cnn1-c1ccc(Cl)c(C(F)(F)F)c1` [compound 103719], the inhibition at 10 µM with H1975 (setting [1]) is 102%; in the experiment with H2030 (setting [2]) it was 94%; in the experiment on H1650 (setting [3]), 45%; in the experiment with H3255 (setting [4]) it was 76%.

As to `CCCOc1cnn(-c2ccccc2)c(=O)c1Cl` [compound 179389], the inhibition at 10 µM in the experiment with H1975 (setting [1]) was 1%; in the experiment on H2030 (setting [2]), 8%; in the experiment on H1650 (setting [3]), -3%; with H3255 (setting [4]), 28%.

In the case of `O=c1c(Cl)cc(Cl)nn1-c1ccccc1` [compound 196392], the inhibition at 10 µM is 99% in the experiment on H1975 (setting [1]), -13% in the experiment on H2030 (setting [2]), 87% in the experiment with H1650 (setting [3]) and 111% in the experiment on H3255 (setting [4]).

As to `COc1cnn(-c2ccc([N+](=O)[O-])cc2)c(=O)c1Cl` [compound 104339], the inhibition at 10 µM is -9% in the experiment on H1975 (setting [1]), -3% with H2030 (setting [2]), -21% in the experiment with H1650 (setting [3]) and 3% with H3255 (setting [4]).

For `CCOC(=O)COc1cnn(-c2ccccc2)c(=O)c1Cl` [compound 225042], the inhibition at 10 µM is 10% in the experiment with H1975 (setting [1]), 6% with H2030 (setting [2]), -18% in the experiment on H1650 (setting [3]) and 5% in the experiment with H3255 (setting [4]).

In the case of `O=c1c(Cl)c(Cl)cnn1-c1ccc([N+](=O)[O-])cc1` [compound 103529], the inhibition at 10 µM is 97% with H1975 (setting [1]), 15% in the experiment on H2030 (setting [2]), -13% in the experiment on H1650 (setting [3]) and 1% in the experiment on H3255 (setting [4]).

Consider `O=c1ccc(Cl)nn1-c1ccccc1` [compound 195149], for which the inhibition at 10 µM in the experiment on H1975 (setting [1]) was 11%; in the experiment with H2030 (setting [2]) it was -5%; with H1650 (setting [3]), -4%; with H3255 (setting [4]) it was -19%.

With `COc1cnn(-c2ccccc2)c(=O)c1SCc1ccc(Cl)cc1Cl` [compound 208701], the inhibition at 10 µM is -25% in the experiment with H1975 (setting [1]), 7% in the experiment on H2030 (setting [2]), -4% in the experiment with H1650 (setting [3]) and 7% in the experiment with H3255 (setting [4]).

Take `O=c1c(SCc2ccccc2)c(N2CCCCC2)cnn1-c1ccccc1` [compound 195989]: the inhibition at 10 µM in the experiment with H1975 (setting [1]) was 35%; with H2030 (setting [2]), 6%; in the experiment with H1650 (setting [3]) it was 21%; in the experiment on H3255 (setting [4]) it was -27%.
